Results from US10918638B2, “Histone deacetylase 6 inhibition for enhancing T-cell function during anti-tumor response and tumor-peptide vaccination” (H. LEE MOFFITT CANCER CENTER AND RESEARCH INSTITUTE, INC., priority 2014, dated 2021).

Legend:
Fc-muMCL1 lymphoma cells [1] = experiment: Fc-muMCL1 lymphoma tumor growth in C57BL/6 mice; assay type: in vivo; conditions: C57BL/6 (WT) mice, 35 mg/kg daily for 16 days vs vehicle
Method: (§1) FIGS. 3A and 3B. […] (FIG. 3A) C57BL/6 or (FIG. 3B) SCID mice were subcutaneous injected with 3×10^6 Fc-muMCL1 lymphoma cells. After tumor appearance, six mice were treated daily with 35 mg/kg of Tubastatin A and four mice received vehicle control, for 16 days. […] To further evaluate whether these in vivo responses were dependent on T-cells, WT or lympho-deficient, lymphoma-bearing mice were treated with an HDAC6 inhibitor. HDAC6 inhibition led to reduced tumor burden in WT mice, which was absent in lympho-deficient mice, highlighting the importance of lymphocytes in the aforementioned in vivo results. Thus, the role of HDAC6 in regulating immune cells during anti-tumor response appears to be more important than the previously reported role as a regulator of Treg function.

Fc-muMCL1 lymphoma cells [2] = experiment: Fc-muMCL1 lymphoma tumor growth in SCID mice; assay type: in vivo; conditions: SCID (lympho-deficient) mice, 35 mg/kg daily for 16 days vs vehicle
Method: as §1

CN1CCc2c(c3ccccc3n2Cc2ccc(C(=O)NO)cc2)C1 [Tubastatin A]
anti-tumor response / tumor burden (Fc-muMCL1 lymphoma cells [1]): Enhanced anti-tumor response | anti-tumor response / tumor burden (Fc-muMCL1 lymphoma cells [2]): dependent on an intact immune system
